Laboratory results reported in US5284774A (priority 1991, dated 1994).
Where “and” joins values, the source holds several entries; their conditions need not be identical. Equal values may be shown once. Entries after “also recorded” stand apart in the source; their conditions may differ. Read-outs that look alike come from different tables or passages of the source.

How the values were obtained:
System L = target: T1, System L (Mus musculus, UniProt Q9Z127); assay type: cell-based, murine
T1 construct: Murine L1210 Leukemia cells were grown in RPMI 1630 medium; endogenous in cells; host or cells: murine L1210 leukemia cells

[1] = tested on: murine L1210 leukemia cells; assay type: cell-based; details: for IC90: l1210 cells, 45 min, read-out: LD90, murine L1210 leukemia cells (antitumor activity)
murine CFU-C = details: for CC90: mouse, bone marrow cfu-c, 0.75 h
[2] = dulbecco's phosphate buffered saline
[3] = read-out: KI, inhibition of initial rate of transport of BCH
[4] = read-out: Ki, competitive inhibition of BCH transport

T1 sequence (Q9Z127 whole entry): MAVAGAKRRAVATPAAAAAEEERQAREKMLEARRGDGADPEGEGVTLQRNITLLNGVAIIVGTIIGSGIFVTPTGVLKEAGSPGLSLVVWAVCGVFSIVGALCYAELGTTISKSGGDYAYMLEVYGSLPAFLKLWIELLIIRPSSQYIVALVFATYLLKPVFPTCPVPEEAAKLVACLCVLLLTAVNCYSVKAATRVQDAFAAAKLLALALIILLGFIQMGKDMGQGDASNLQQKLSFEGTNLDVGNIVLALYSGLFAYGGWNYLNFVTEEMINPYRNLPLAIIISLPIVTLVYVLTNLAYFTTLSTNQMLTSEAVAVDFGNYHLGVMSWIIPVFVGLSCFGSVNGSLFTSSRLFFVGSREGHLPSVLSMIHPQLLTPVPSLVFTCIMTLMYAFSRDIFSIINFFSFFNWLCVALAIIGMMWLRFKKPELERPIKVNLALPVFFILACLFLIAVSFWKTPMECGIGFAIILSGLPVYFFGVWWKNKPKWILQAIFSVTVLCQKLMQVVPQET
T1 sequence (P10852 whole entry partner): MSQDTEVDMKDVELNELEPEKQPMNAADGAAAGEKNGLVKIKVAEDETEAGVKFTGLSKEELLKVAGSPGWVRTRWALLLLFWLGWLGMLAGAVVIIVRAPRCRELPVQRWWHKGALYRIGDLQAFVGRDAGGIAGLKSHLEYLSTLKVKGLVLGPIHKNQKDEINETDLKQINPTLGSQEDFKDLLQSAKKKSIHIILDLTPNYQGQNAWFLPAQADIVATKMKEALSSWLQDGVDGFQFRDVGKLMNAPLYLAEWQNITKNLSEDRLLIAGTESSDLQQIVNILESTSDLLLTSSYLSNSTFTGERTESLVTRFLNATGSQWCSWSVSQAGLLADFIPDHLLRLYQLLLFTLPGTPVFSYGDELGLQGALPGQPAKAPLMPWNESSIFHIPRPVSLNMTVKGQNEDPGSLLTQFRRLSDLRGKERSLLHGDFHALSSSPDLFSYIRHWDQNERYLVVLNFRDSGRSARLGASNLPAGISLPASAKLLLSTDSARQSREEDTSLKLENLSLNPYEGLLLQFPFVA

Compound	KI lower / affinity for System L greater than that of L-phenylalanine mustard (System L) [fold]	inhibition of System L (in words) (System L)	more effective inhibitor of System L than BCH (System L)	more potent than 2-amino-1,2,3,4-tetrahydro-2-naphthoic acid (System L)	Ki (System L; [3]) [µM]	Ki (System L; [4]) [µM]	antitumor activity (in words) [1]	improvement in therapeutic index [1]	IC90 [1] [µM]	myelosuppressive activity (in words) (murine CFU-C)	CC90 (murine CFU-C) [µM]	half life (t1/2) [2]
NC1(C(=O)O)CCc2ccc(N(CCCl)CCCl)cc2C1 (racemic) [Compound 6, DL-2-Amino-7-bis(2-chloroethyl)amino-1,2,3,4-tetrahydro-2-naphthoic acid]	500	extremely potent competitive inhibitor; also recorded: most potent inhibitor of System L	25-50 fold	approximately 40 fold	~0.2	0.22	enhanced antitumor activity	2-2.5 fold and 2 fold	26.5	reduced myelosuppressive activity	23.8	approximately 40 minutes
NC1(C(=O)O)CCc2c(cccc2N(CCCl)CCCl)C1 (racemic) [Compound 7, DL-2-Amino-5-bis-(2-chloroethyl) amino-1,2,3,4-tetrahydro-2-naphthoic acid]	–	weaker inhibitor	–	–	15.2	–	–	–	–	–	–	–
L-phenylalanine mustard [L-PAM, reference compound]	–	–	–	–	–	112	–	–	35	–	14	–
